# Measured values from ChEMBL document CHEMBL1158919, “Antiviral Activity of Ternatin and Meliternatin, 3-Methoxyflavones from Species of Rutaceae” (J Nat Prod, 1990).
# Calls of active or inactive are those of the source. The rule behind the calls is not given here.
# Legend:
# [1] = Therapeutic index, ratio of CyD50 for african green monkey Vero cells to ED50 for 10^-2 MOI Poliovirus 2; assay type: cell-based; details: read-out: TI
# [2] = Therapeutic index, ratio of CyD50 for african green monkey Vero cells to ED50 for 10^-3 MOI VSV; assay type: cell-based; details: read-out: TI
# [3] = Therapeutic index, ratio of CyD50 for african green monkey Vero cells to ED50 for 10^-2 MOI Human adenovirus 2; assay type: cell-based; details: read-out: TI
# [4] = tested on: Human alphaherpesvirus 1; experiment: Antiviral activity against 10^-2 MOI HSV1 infected in african green monkey Vero cells assessed as inhibition of virus-induced cytopathic effect; assay type: functional, organism-based
# [5] = tested on: Human alphaherpesvirus 2; experiment: Antiviral activity against 10^-3 MOI HSV2 infected in african green monkey Vero cells assessed as inhibition of virus-induced cytopathic effect; assay type: functional; details: Human alphaherpesvirus 2, Vero; read-out: ED50 (the source's name)
# [6] = Therapeutic index, ratio of CyD50 for african green monkey Vero cells to ED50 for 10^-3 MOI Human adenovirus 2; assay type: cell-based; details: read-out: TI
# [7] = Therapeutic index, ratio of CyD50 for african green monkey Vero cells to ED50 for 10^-2 MOI VSV; assay type: cell-based; details: read-out: TI
# [8] = tested on: Human adenovirus 2; experiment: Antiviral activity against 10^-3 MOI Human adenovirus 2 infected in african green monkey Vero cells assessed as inhibition of virus-induced cytopathic effect; assay type: functional; details: Human mastadenovirus C, read-out: ED50 (the source's name)
# [9] = Therapeutic index, ratio of CyD50 for african green monkey Vero cells to ED50 for 10^-3 MOI HSV2; assay type: cell-based; details: read-out: TI
# [10] = tested on: Vesicular stomatitis virus; experiment: Antiviral activity against 10^-3 MOI VSV infected in african green monkey Vero cells assessed as inhibition of virus-induced cytopathic effect; assay type: functional; details: read-out: ED50 (the source's name)
# [11] = tested on: Poliovirus 2; experiment: Antiviral activity against 10^-3 MOI Poliovirus type 2 infected in african green monkey Vero cells assessed as inhibition of virus-induced cytopathic effect; assay type: functional; details: Enterovirus C, read-out: ED50 (the source's name)
# [12] = tested on: Human alphaherpesvirus 2; experiment: Antiviral activity against HSV2 infected in african green monkey Vero cells assessed as log reduction in viral titer; assay type: functional
# [13] = tested on: Vesicular stomatitis virus; experiment: Antiviral activity against 10^-2 MOI VSV infected in african green monkey Vero cells assessed as inhibition of virus-induced cytopathic effect; assay type: functional; details: read-out: ED50 (the source's name)
# [14] = Therapeutic index, ratio of CyD50 for african green monkey Vero cells to ED50 for 10^-3 MOI Poliovirus 2; assay type: cell-based; details: read-out: TI
# [15] = tested on: Vero; experiment: Cytotoxicity against african green monkey Vero cells up to 200 uM after 96 hrs; assay type: cell-based; details: chlorocebus sabaeus
# [16] = tested on: Human adenovirus 2; experiment: Antiviral activity against 10^-2 MOI Human adenovirus 2 infected in african green monkey Vero cells assessed as inhibition of virus-induced cytopathic effect; assay type: functional; details: Human mastadenovirus C, read-out: ED50 (the source's name)
# [17] = tested on: Human alphaherpesvirus 2; experiment: Antiviral activity against 10^-2 MOI HSV2 infected in african green monkey Vero cells assessed as inhibition of virus-induced cytopathic effect; assay type: functional; details: Human alphaherpesvirus 2, Vero; read-out: ED50 (the source's name)
# [18] = tested on: Human alphaherpesvirus 1; experiment: Antiviral activity against 10^-3 MOI HSV1 infected in african green monkey Vero cells assessed as inhibition of virus-induced cytopathic effect; assay type: functional; details: Human alphaherpesvirus 1, Vero; read-out: ED50 (the source's name)
# [19] = tested on: Vero; experiment: Cytotoxicity against african green monkey Vero cells assessed as cell lysis at >200 uM after 96 hrs; assay type: cell-based; details: chlorocebus sabaeus
# [20] = tested on: Vero; experiment: Cytotoxicity against african green monkey Vero cells up to 800 uM after 96 hrs; assay type: cell-based; details: chlorocebus sabaeus
# [21] = tested on: Poliovirus 2; experiment: Antiviral activity against Poliovirus type 2 infected in african green monkey Vero cells assessed as log reduction in viral titer at 1.12 ug/mL; assay type: functional
# [22] = tested on: Human alphaherpesvirus 1; experiment: Antiviral activity against HSV1 infected in african green monkey Vero cells assessed as log reduction in viral titer; assay type: functional
# [23] = Therapeutic index, ratio of CyD50 for african green monkey Vero cells to ED50 for 10^-2 MOI HSV2; assay type: cell-based; details: read-out: TI
# [24] = tested on: Vesicular stomatitis virus; experiment: Antiviral activity against VSV infected in african green monkey Vero cells assessed as log reduction in viral titer; assay type: functional
# [25] = tested on: Human adenovirus 2; experiment: Antiviral activity against Human adenovirus 2 infected in african green monkey Vero cells assessed as log reduction in viral titer; assay type: functional
# [26] = tested on: Poliovirus 2; experiment: Antiviral activity against 10^-2 MOI Poliovirus type 2 infected in african green monkey Vero cells assessed as inhibition of virus-induced cytopathic effect; assay type: functional; details: Enterovirus C, read-out: ED50 (the source's name)
# [27] = Therapeutic index, ratio of CyD50 for african green monkey Vero cells to ED50 for 10^-3 MOI HSV1; assay type: cell-based; details: read-out: TI
# [28] = tested on: Vero; experiment: Cytotoxicity against african green monkey Vero cells assessed as cell lysis at >800 uM after 96 hrs; assay type: cell-based; details: chlorocebus sabaeus
# [29] = tested on: Poliovirus 2; experiment: Antiviral activity against Poliovirus type 2 infected in african green monkey Vero cells assessed as reduction in viral titer at 5 ug/mL; assay type: functional, organism-based
compound,measurement,setting,value
COc1cc(-c2oc3c(OC)c(OC)cc(O)c3c(=O)c2OC)ccc1O [TERNATIN],selectivity ratio,[1],50
same,selectivity ratio,[2],5.2
same,selectivity ratio,[3],20
same,ED50,[4],inactive
same,EC50,[5],14 µM
same,selectivity ratio,[6],20
same,selectivity ratio,[7],4.2
same,EC50,[8],10 µM
same,selectivity ratio,[9],14.4
same,EC50,[10],38 µM
same,EC50,[11],3 µM
same,Activity,[12],2
same,EC50,[13],48 µM
same,selectivity ratio,[14],66.6
same,Activity,[15],Non-toxic
same,EC50,[16],10 µM
same,EC50,[17],100 µM
same,EC50,[18],44 µM
same,Activity,[19],Toxic
same,Activity,[20],Non-toxic
same,Activity,[21],5
same,Activity,[22],1
same,selectivity ratio,[23],2
same,Activity,[24],2
same,Activity,[25],3
same,EC50,[26],4 µM
same,selectivity ratio,[27],4.6
COc1c(-c2ccc3c(c2)OCO3)oc2cc3c(c(OC)c2c1=O)OCO3 [MELITERNATIN],Activity,[28],Toxic
COc1c(-c2ccc(O)c(O)c2)oc2cc(O)cc(O)c2c1=O,Activity,[29],Active
